The results in this text go back to US7803795B2, “Phthalazine derivatives as parp inhibitors” (Janssen Pharmaceutica N.V., priority 2004, dated 2010).

The target in one series is T1, PARP-1 enzyme (Homo sapiens, UniProt P09874).
T1 construct: made in house
The series can be described thus: in vitro filtration assay for PARP-1 inhibitory activity. Format: biochemical. The settings on record: [32P]-NAD, histones, nicked DNA; dose-response 10^-5 M to 10^-8 M; read-out: in vitro filter assay PARP-1 pIC50 (converted). On the procedure:
In Vitro Filtration Assay for PARP-1 Inhibitory Activity
Compounds of the present invention were tested in an in vitro filtration assay assessing PARP-1 activity (triggered in the presence of nicked DNA) by means of its histone poly (ADP-ribosylation activity using [^32P]-NAD as ADP-ribosyl donor. The radioactive ribosylated histones were precipitated by trichloroacetic acid (TCA) in 96-well filterplates and the incorporated [^32P] measured using a scintillation counter
A mixture of histones (stock solution: 5 mg/ml in H2O), NAD^+ (stock solution: 100 mM in H2O), and [^32P]-NAD^+ in incubation buffer (50 mM Tris/HCl, pH 8; 0.2 mM DTT; 4 mM MgCl2) was made. A mixture of the PARP-1 enzyme (5-10 μg/ml) and nicked DNA was also made. The nicked DNA was prepared as described in the in vitro SPA for PARP-1 inhibitory activity. Seventy-five μl of the PARP-1 enzyme/DNA mixture together with 1 μl of compound in DMSO and 25 μl of histones-NAD^+/[^32P]-NAD^+ mixture was added per well of a 96-well filterplate (0.45 μm, supplier Millipore). The final concentrations in the incubation mixture were 2 μg/ml for the histones, 0.1 mM for the NAD^+, […] (0.5 μC) for the [^32P]-NAD^+ and 2 μg/ml for the nicked DNA. Plates were incubated for 15 min. at room temperature and the reaction was terminated by the addition of 10 μl ice cold 100% TCA followed by the addition of 10 μl ice-cold BSA solution (1% in H2O). The protein fraction was allowed to precipitate for 10 min. at 4° C. and plates were vacuum filtered. The plates were subsequently washed with, for each well, 1 ml of 10% ice cold TCA, 1 ml of 5% ice cold TCA and 1 ml of 5% TCA at room temperature. Finally 100 μl of scintillation solution (Microscint 40, Packard) was added to each well and the plates were transferred to a TopCountNXT™ (supplier: Packard) for scintillation counting and values were expressed as counts per minute (cpm). For each experiment, controls (containing PARP-1 enzyme and DMSO without compound), a blank incubation (containing DMSO but no PARP-1 enzyme or compound) and samples (containing PARP-1 enzyme and compound dissolved in DMSO) were run in parallel. All compounds tested were dissolved and eventually further diluted in DMSO. In first instance, compounds were tested at a concentration of 10^−5M. […] In each test, the blank value was subtracted from both the control and the sample values. The control sample represented maximal PARP-1 enzyme activity. For each sample, the amount of cpm was expressed as a percentage of the mean cpm value of the controls. When appropriate, IC50-values (concentration of the drug, needed to reduce the PARP-1 enzyme activity to 50% of the control) were computed using linear interpolation between the experimental points just above and below the 50% level. Herein the effects of test compounds are expressed as pIC50 (the negative log value of the IC50-value). As a reference compound, 4-amino-1,8-naphthalimide was included to validate the filtration assay.

Another series deals with T2, TANK-2 enzyme (Homo sapiens, UniProt Q9H2K2).
T2 construct: His tag (inferred from capture on a Ni-coated plate); made in house
T2 sequence (Q9H2K2 1-1166): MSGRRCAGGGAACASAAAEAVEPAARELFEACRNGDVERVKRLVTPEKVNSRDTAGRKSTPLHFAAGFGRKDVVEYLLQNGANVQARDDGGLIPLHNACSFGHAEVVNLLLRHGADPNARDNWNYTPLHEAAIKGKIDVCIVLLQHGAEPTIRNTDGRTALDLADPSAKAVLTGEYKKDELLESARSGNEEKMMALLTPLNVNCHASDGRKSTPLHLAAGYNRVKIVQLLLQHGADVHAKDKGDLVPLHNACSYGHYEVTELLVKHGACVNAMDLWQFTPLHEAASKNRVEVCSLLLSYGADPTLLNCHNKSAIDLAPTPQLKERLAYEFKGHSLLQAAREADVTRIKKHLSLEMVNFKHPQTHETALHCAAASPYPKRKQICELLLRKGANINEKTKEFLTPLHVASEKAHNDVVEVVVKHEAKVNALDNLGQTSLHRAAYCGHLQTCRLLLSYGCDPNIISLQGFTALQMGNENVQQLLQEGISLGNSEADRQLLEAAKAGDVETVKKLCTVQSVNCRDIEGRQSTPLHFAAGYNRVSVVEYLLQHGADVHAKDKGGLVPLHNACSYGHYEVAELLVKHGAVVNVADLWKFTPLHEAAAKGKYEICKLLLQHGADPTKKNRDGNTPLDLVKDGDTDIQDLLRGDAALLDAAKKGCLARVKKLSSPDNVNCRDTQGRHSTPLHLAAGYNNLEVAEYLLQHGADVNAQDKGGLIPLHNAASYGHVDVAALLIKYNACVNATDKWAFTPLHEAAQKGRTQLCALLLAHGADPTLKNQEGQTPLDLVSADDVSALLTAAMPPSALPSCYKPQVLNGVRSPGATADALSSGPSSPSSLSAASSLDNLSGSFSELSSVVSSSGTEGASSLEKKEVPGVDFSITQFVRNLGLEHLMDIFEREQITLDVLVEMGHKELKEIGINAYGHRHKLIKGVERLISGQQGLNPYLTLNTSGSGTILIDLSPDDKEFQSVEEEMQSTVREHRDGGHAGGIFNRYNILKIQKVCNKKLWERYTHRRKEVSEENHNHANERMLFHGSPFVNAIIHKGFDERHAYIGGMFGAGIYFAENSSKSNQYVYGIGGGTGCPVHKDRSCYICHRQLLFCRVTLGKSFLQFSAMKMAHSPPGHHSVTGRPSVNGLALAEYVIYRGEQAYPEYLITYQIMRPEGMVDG
The series can be described thus: in vitro Scintillation Proximity Assay (SPA) for TANK-2 inhibitory activity. Format: biochemical. The method, then: In Vitro Scintillation Proximity Assay (SPA) for Tank-2 Inhibitory Activity
Compounds of the present invention were tested in an in vitro assay based on SPA technology with Ni Flash plates (96 or 384 well).
In principle, the assay relies upon SPA technology for the detection of auto-poly(ADP-ribosylation of TANK-2 protein using [^3H]-nicotinamide adenine dinucleotide ([^3H]-NAD^+) as ADP-ribosyl donor.
A stock solution of [^3H]-NAD^+/NAD was made by adding 64.6 μl of [^3H]-NAD^+ (0.1 mCi/ml, supplier: Perkin Elmer) and 46.7 μl NAD-stock (10.7 mM, stored at −20° C., supplier Roche) to 1888.7 μl assay buffer (60 mM Tris/HCl, pH 7.4; 0.9 mM DTT; 6 mM MgCl2). The TANK-2 enzyme was produced as described in EP1238063.60 μl of assay buffer, together with 1 μl of compound in DMSO, 20 μl of [^3H]-NAD^+/NAD and 20 μl of TANK-2 enzyme (final concentration 6 μg/ml) was added per well into a 96-well Ni-coated flash plate (Perkin Elmer). After incubation of the mixture for 120 min. at room temperature, the reaction was terminated by adding 60 μl of stopsolution (42.6 mg NAD in 6 ml H2O). The plates were covered with a plate sealer and placed in a TopCountNXT™ (Packard) for scintillation counting. Values were expressed as counts per minute (cpm). For each experiment, controls (containing TANK-2 enzyme and DMSO without compound), a blank incubation (containing DMSO but no TANK-2 enzyme or compound) and samples (containing TANK-2 enzyme and compound dissolved in DMSO) were run in parallel. All compounds tested were dissolved and eventually further diluted in DMSO. […] In each test, the blank value was subtracted from both the control and the sample values. The control sample represented maximal TANK-2 enzyme activity. For each sample, the amount of cpm was expressed as a percentage of the mean cpm value of the controls. When appropriate, IC50-values (concentration of the drug, needed to reduce the TANK-2 enzyme activity to 50% of the control) were computed using linear interpolation between the experimental points just above and below the 50% level. Herein the effects of test compounds are expressed as pIC50 (the negative log value of the IC50-value). As reference compounds, 3-aminobenzamide and 4-amino-1,8-naphthalimide were included to validate the SPA assay. Herein the assay was described using 96-well plates. In the assay using 384-well plates the same final concentrations were used and volumes were adapted.
On the technique in general: In a scintillation proximity assay essentially only radioactivity close to the scintillant gives light.

Where a name gives a salt, the structure may show the parent alone. Bounds are passed on as bounds.

The melting point is the temperature, or range, at which the solid turns liquid.

T1 sequence (P09874 whole entry): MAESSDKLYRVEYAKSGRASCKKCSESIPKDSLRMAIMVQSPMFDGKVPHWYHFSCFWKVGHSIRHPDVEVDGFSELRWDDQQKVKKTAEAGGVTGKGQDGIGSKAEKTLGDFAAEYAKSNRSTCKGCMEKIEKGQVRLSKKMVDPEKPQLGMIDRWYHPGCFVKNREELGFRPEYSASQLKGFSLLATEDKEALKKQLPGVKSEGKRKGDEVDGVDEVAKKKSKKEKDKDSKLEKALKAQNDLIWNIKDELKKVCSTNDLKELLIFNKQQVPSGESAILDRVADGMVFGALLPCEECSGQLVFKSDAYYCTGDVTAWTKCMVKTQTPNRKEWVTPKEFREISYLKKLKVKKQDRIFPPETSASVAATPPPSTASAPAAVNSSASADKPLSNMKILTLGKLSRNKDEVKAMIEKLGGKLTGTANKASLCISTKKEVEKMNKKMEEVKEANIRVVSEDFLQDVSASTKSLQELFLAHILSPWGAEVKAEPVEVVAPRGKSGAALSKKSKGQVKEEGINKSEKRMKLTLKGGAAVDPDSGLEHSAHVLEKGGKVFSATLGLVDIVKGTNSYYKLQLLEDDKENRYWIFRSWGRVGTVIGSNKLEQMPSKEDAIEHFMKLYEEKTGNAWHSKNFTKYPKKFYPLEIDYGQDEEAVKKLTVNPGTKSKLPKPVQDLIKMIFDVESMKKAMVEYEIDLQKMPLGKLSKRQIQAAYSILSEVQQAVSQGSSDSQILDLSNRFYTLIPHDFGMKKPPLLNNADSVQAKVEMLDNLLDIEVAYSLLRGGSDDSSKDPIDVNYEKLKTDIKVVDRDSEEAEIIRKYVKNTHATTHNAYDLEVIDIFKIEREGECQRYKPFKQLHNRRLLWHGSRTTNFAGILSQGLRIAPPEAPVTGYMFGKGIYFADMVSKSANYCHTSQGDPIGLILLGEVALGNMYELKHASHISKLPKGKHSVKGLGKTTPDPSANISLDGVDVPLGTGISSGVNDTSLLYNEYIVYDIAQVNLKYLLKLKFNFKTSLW

Take `O=c1[nH]nc(N[C@@H]2C[C@H]3CC[C@@H](C2)N3)c2ccccc12` (as salt: HBr) [Compound 15]: the melting point was more than 299 °C.

The compound `Clc1nnc(NC2CCN(Cc3ccccc3)C2)c2ccccc12` (stereo not drawn) (as salt: HCl) (hydrate or solvate) [Compound 12] came in with a melting point of 171.8 °C.

As to `Nc1ccc2c(=O)[nH]nc(NC3CCNCC3)c2c1` (as salt: HCl) (hydrate or solvate) [Compound 14], the melting point was more than 300 °C.

`O=c1[nH]nc(C2CCN(CCCOc3ccc(F)cc3)CC2)c2ccccc12` (as salt: HCl) [Compound 13] came in with a melting point of 227.6 °C.

Compound `O=c1[nH]nc(N[C@@H]2C[C@H]3CC[C@@H](C2)N3CCCC(c2ccc(F)cc2)c2ccc(F)cc2)c2ccccc12` (hydrate or solvate) [Compound 3] displayed a melting point of 164.4 °C.

For `O=c1[nH]nc(C2CCN(C[C@H](O)[C@@H]3CCc4ccccc4O3)CC2)c2ccccc12` (relative stereo) [Compound 28], the IC50 on PARP-1 enzyme is 0.0454 µM.

For `O=c1[nH]nc(N[C@H]2CCN[C@@H](Cc3ccccc3)C2)c2ccccc12` (single isomer, unassigned) [Compound 35], the results for the IC50 on PARP-1 enzyme and on TANK-2 enzyme were 0.177 µM and more than 10 µM, respectively.

In the case of `Nc1ccc2c(=O)[nH]nc(NC3CCNCC3)c2c1` [Compound 14], the results for the IC50 at PARP-1 enzyme and on TANK-2 enzyme were 0.766 µM and more than 10 µM, respectively.

Regarding `O=c1[nH]nc(C2CCN(CC(O)COc3ccc(F)c(F)c3)CC2)c2ccccc12` (stereo not drawn) [Compound 26], the values for the IC50 on PARP-1 enzyme and against TANK-2 enzyme were 0.0173 µM and more than 10 µM, respectively.

With `NC1CCN(c2n[nH]c(=O)c3ccccc23)CC1` [Compound 31], the IC50 on PARP-1 enzyme was 0.119 µM; at TANK-2 enzyme it was more than 10 µM.

In the case of `N#CCN1CCN(c2n[nH]c(=O)c3ccccc23)CC1` [Compound 32], the IC50 is 0.109 µM at PARP-1 enzyme and 9.25 µM at TANK-2 enzyme.

On to `NCCN1CCC(Nc2n[nH]c(=O)c3ccccc23)CC1` [Compound 33], for which the IC50 is 0.154 µM at PARP-1 enzyme and more than 10 µM against TANK-2 enzyme.

With `O=c1[nH]nc(NCC2CCNCC2)c2ccccc12` [Compound 36], the IC50 at PARP-1 enzyme is 0.0838 µM; at TANK-2 enzyme it was 3.13 µM.

For the compound `O=c1[nH]nc(NCCC2CCNCC2)c2ccccc12` [Compound 37], the IC50 is 0.0618 µM at PARP-1 enzyme and more than 10 µM against TANK-2 enzyme.

For the compound `O=c1[nH]nc(NC2CC(Cc3ccccc3)NC(Cc3ccccc3)C2)c2ccccc12` (stereo not drawn) [Compound 38], the IC50 was 0.148 µM on PARP-1 enzyme and more than 10 µM against TANK-2 enzyme.

As for `O=c1[nH]nc(NC2CCNCC2)c2cc(Cl)ccc12` [Compound 39], the IC50 on PARP-1 enzyme was 0.213 µM; at TANK-2 enzyme it was more than 10 µM.

Take `O=c1[nH]nc(NC2CCNCC2)c2cccc([N+](=O)[O-])c12` [Compound 40]: the IC50 is 0.217 µM at PARP-1 enzyme and more than 10 µM on TANK-2 enzyme.

With `O=c1[nH]nc(NC2CCNCC2)c2ccccc12` [Compound 41], the IC50 was 0.0377 µM at PARP-1 enzyme and more than 10 µM at TANK-2 enzyme.

On to `O=c1[nH]nc(NCCNC2CCN(Cc3ccccc3)CC2)c2ccccc12` [Compound 42], for which the IC50 at PARP-1 enzyme is 0.179 µM; on TANK-2 enzyme, more than 10 µM.

Consider `CCOC(=O)N1CCC(CCNc2n[nH]c(=O)c3ccccc23)CC1` [Compound 43], for which the IC50 is 0.0568 µM on PARP-1 enzyme and more than 10 µM at TANK-2 enzyme.

For the compound `O=c1[nH]nc(N2CCC(NCc3ccccc3)CC2)c2ccccc12` [Compound 45], the IC50 at PARP-1 enzyme is 0.109 µM; against TANK-2 enzyme, 5.43 µM.

`CC(C)(C)OC(=O)N1CCC(CNc2n[nH]c(=O)c3ccccc23)CC1` [Compound 47]: the IC50 is 0.182 µM at PARP-1 enzyme and 6.37 µM at TANK-2 enzyme.

Regarding `CN(c1cc2ccccc2s1)C1CCN(c2n[nH]c(=O)c3ccccc23)CC1` [Compound 54], at PARP-1 enzyme, the IC50 was 0.0918 µM.

As to `O=c1[nH]nc(C2CCN(c3ccc(Cl)nn3)CC2)c2ccccc12` [Compound 62], the IC50 at PARP-1 enzyme is 0.0386 µM.

For `COc1ccc(CCN2CCC(c3n[nH]c(=O)c4ccccc34)CC2)cc1` [Compound 64], the IC50 on PARP-1 enzyme was 0.0292 µM.

In turn, `FC(F)(F)c1cccc(N2CCN(c3nnc(Cl)c4ccccc34)CC2)c1` [Compound 79] displayed an IC50 against TANK-2 enzyme of more than 10 µM.

For `Clc1cccc(N2CCN(c3nnc(Cl)c4ccccc34)CC2)c1` [Compound 80], the IC50 against TANK-2 enzyme is more than 10 µM.

For the compound `Cc1cccc(N2CCN(c3nnc(Cl)c4ccccc34)CC2)c1` [Compound 81], the IC50 on TANK-2 enzyme is 2.79 µM.

Regarding `COc1ccccc1N1CCN(c2nnc(Cl)c3ccccc23)CC1` [Compound 84], the IC50 against TANK-2 enzyme was more than 10 µM.
